From article PMC4639830, “Inhibition of DYRK1A and GSK3B induces human β-cell proliferation” (Nature Communications, 2015)

Columns and labels:
[1] = biological target: T1, Fyn (Homo sapiens, UniProt P06241); test: Kinase profiling; type: biochemical; settings: read-out: Percent inhibition, Fyn
T1 construct: purchased Ambit KINOMEscan
From the text: ; Fig. 5a; Supplementary Table 1). We focused on Dyrk1a because other kinases inhibited by aminopyrazine compounds were not highly expressed in β-cells and because Dyrk1a was known to inhibit the NFAT pathway that was previously implicated in β-cell proliferation. We used molecular modelling to dock the aminopyrazine compounds into the published structure of Dyrk1a (protein databank accession code 2vx3.pdb; Fig. 5b).

[2] = tested on: diabetic RIP-DTA mice; test: RIP-DTA mouse model of T1D; type: in vivo; settings: 50 mg kg^−1 twice daily
From the text: All animal care and experimental procedures were approved by the Institutional Animal Care and Use Committee (IACUC) of Genomics Institute of the Novartis Research Foundation and strictly followed the NIH guidelines for humane treatment of animals. The double transgenic RIP-DTA male mice (Tg(Ins2-rtTA)2Efr Tg(teto-DTA)1Gfi/J; Jackson Laboratory, Stock # 008755) were bred in-house and were maintained in a 12-h light/12-dark cycle environment with controlled temperature, humidity and ventilation. Animals were housed 3–5 mice per cage and had free access to water and standard laboratory chow. To induce pancreatic β-cell ablation and hyperglycaemia, doxycycline (200 μg ml^−1, Sigma-Aldrich) was provided in the drinking water for 5 days. Blood glucose levels were measured from tail-vein blood with a glucometer (AlphaTrak2 Monitoring System; Abbott). Experimental groups of 14 male mice each were randomized based on similar body weights (28.8±2.4 g), age (82±2 days), and blood glucose levels (428±96 mg dl^−1). Group sizes of eight animals each are sufficient to reliably detect changes in glycaemic control and β-cell mass based on historical data with reference compounds; an additional six mice were added to each group to assess total pancreatic insulin levels. […] A sub-set of animals were not given doxycycline treatment and were used as a non-diabetic vehicle–control group. All compounds were administered daily via oral gavage (4 ml kg^−1). Body weight and blood glucose were monitored every third day. An oral glucose tolerance test was performed after an overnight fast on day 12. For the insulin tolerance test, mice were fasted for 4 h before the administration of insulin (Novolin, Novo Nordisk, 0.7 U kg^−1 body weight, i.p.). Pancreatic insulin content was determined by MSD (meso-scale discovery). […] To determine β-cell proliferation and β-cell mass by morphological analyses, pancreata from the rest of animals (n=8) were rapidly dissected, fixed in formalin, sectioned and immunostained for insulin, Ki67 and BrdU on day 16. Male NSG mice, aged 8 weeks, were obtained from the Jackson Laboratory (Strain NOD.Cg-Prkdc^scid Il2rg^tm1Wjl/SzJ; Stock number 005557) and housed according to IACUC guidelines. Baseline body weight and tail-vein blood glucose measurements were recorded before diabetic induction. To obtain a diabetic state, animals were given an intraperitoneal dose of STZ (135 mg kg^−1) and blood glucose was monitored before transplant. Mice were grouped according to body weight and blood glucose level on the day of transplants (72 h after STZ treatment).
Pancreas specimens were harvested, weighed, fixed in 10% neutral buffered formalin and processed using standard paraffin processing techniques. Five micrometre serial-step sections were mounted onto Superfrost Plus slides and air-dried overnight. Samples were coded before histologic analyses resulting in blinded processing and staining. Routine hematoxylin and eosin (H&E) stains were performed on all specimens. Immunostaining was performed using the Ventana Discovery XT system. All epitope retrieval was done on the instrument using CC1 reagent. Chromogenic insulin was detected using guinea pig anti-insulin (Dako Corp A0564) at 1:3,200 and the Blue Map kit, after serum blocking and endogenous biotin blocking was performed, slides were then counterstained with Nuclear Fast Red. Fluorescent insulin and Ki67 double stains used a cocktail of the Dako anti-insulin at 1:1,600 and rabbit monoclonal Ki67 (Thermo RM9106) at 1:100, and were detected using a cocktail of Alexa Fluor 488 and 594-labelled secondary antibodies. Auto-fluorescence was quenched in red blood cells and reduced in connective tissue by treatment with 10 mM copper sulfate. Slides were counterstained with DAPI. 21 slides were collected per block. All slides were imaged on the Hamamatsu Nanozoomer and evaluated for β-cell mass and proliferation. […]

[3] = tested on: primary human islets; test: TUNEL in β-cells; type: cell-based; settings: 4 days in the presence of EdU
Procedure: Supplementary Figure 2. […] (a-c) Primary human […]
for 4 days in the presence of EdU. […]
effects on TUNEL in EdU positive cells while CDK6 and Cyclin D1 increased TUNEL staining in EdU positive cells (consistent with previous reports) (n=3; mean ± SD). (d) Human islets were […]
for 16 hrs in the presence of EdU. Following treatment, cells were analyzed for TUNEL, and stained for insulin and DAPI.
TUNEL without EdU incorporation. […]
(1 picture or pasted object on this page, not shown here)

[4] = biological target: T2, GSK3beta (Homo sapiens, UniProt P49841); test: Kinase profiling; type: biochemical; settings: Conc 1000 nM; read-out: Percent inhibition, GSK3beta
T2 construct: purchased Ambit KINOMEscan
T2 sequence (P49841 whole entry): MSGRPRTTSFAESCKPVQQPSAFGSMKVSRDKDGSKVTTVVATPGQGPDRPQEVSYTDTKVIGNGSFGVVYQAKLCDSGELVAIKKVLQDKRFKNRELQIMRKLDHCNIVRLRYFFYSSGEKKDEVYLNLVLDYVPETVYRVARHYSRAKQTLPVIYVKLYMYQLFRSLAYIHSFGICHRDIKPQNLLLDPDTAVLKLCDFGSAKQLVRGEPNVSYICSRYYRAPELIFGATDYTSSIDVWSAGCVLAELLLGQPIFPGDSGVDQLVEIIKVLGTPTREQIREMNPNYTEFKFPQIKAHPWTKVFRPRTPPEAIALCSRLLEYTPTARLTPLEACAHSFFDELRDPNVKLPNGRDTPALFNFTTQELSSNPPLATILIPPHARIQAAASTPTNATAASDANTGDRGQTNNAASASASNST

T1 sequence (P06241 whole entry): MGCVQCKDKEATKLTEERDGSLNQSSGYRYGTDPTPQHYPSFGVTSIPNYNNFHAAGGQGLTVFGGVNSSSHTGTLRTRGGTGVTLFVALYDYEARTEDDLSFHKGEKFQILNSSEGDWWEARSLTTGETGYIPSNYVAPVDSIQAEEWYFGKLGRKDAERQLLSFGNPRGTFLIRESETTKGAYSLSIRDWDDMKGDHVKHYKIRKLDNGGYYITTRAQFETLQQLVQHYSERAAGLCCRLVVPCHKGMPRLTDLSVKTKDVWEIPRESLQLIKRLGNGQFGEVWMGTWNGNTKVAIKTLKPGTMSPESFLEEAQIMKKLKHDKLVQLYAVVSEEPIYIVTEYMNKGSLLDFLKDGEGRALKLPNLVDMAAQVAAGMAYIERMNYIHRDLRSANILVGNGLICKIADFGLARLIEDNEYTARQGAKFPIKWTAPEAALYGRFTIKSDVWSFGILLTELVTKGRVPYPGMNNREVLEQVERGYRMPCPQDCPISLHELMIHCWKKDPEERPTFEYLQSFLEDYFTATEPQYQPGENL

inhibition at 1 µM [4] [%] | SMILES | inhibition at 0.2 µM ([1]; Conc 200 nM) [%] | inhibition at 1 µM ([1]; Conc 1000 nM) [%] | oral glucose tolerance vs vehicle ([2]; 14 days of dosing) | body weight, appearance or behaviour vs vehicle ([2]; oral) | insulin tolerance vs vehicle ([2]; oral) | non-fasting blood glucose levels ([2]; oral) | β-cell mass, increase vs vehicle-treated diabetic mice ([2]; oral, 14 days) [fold] | insulin content, increase vs vehicle-treated diabetic mice ([2]; oral, whole pancreas lysate, 15 days) | TUNEL-positive β-cells [3]
– | CC(C)Oc1ccc(F)c(-c2cnc(N)c(C(=O)Nc3cnccc3N3CCC[C@@H](C(=O)O)C3)n2)c1 [GNF4877] | 26 | 77 | dramatically improved glucose tolerance | did not show any difference in body weight | without a significant difference in insulin tolerance | progressive reduction of non-fasting blood glucose levels | ~1.5 | twofold | unchanged
99 | Nc1ncc(-c2ccccc2)nc1C(=O)Nc1cnccc1N1CCC(C(=O)O)CC1 [GNF7156] | – | – | – | – | – | – | – | – | –
